In ChEMBL document CHEMBL1134068, “Thiazole analogues of the NSAID indomethacin as selective COX-2 inhibitors” (Bioorg Med Chem Lett, 2001):

Tests used:
[1] = target: T1, Prostaglandin G/H synthase 2 (Homo sapiens) (UniProt P35354); assay: Percent inhibition at 100 nM concentration against human recombinant Prostaglandin G/H synthase 2 cloned and expressed in baculovirus (Sf9)
T1 sequence (whole entry): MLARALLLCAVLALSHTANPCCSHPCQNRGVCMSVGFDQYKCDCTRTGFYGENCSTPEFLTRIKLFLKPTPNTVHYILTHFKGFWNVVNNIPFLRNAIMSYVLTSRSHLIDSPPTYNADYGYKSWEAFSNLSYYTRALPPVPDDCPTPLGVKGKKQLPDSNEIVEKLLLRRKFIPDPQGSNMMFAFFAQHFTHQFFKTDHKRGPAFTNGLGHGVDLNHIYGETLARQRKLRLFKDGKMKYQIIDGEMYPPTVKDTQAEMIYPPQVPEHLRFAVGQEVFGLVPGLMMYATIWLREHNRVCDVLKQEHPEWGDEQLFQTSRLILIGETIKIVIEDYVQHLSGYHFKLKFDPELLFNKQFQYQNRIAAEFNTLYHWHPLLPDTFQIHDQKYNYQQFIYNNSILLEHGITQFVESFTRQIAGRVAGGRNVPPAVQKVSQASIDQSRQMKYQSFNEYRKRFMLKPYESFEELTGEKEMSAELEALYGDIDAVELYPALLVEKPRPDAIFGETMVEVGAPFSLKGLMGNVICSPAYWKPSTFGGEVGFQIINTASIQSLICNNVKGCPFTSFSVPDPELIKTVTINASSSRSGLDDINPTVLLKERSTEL

[2] = target: T2, Prostaglandin G/H synthase 1 (Homo sapiens, UniProt P23219); assay: Percent inhibition at 10 uM concentration against human recombinant Prostaglandin G/H synthase 1 cloned and expressed in baculovirus
T2 sequence (P23219 whole entry): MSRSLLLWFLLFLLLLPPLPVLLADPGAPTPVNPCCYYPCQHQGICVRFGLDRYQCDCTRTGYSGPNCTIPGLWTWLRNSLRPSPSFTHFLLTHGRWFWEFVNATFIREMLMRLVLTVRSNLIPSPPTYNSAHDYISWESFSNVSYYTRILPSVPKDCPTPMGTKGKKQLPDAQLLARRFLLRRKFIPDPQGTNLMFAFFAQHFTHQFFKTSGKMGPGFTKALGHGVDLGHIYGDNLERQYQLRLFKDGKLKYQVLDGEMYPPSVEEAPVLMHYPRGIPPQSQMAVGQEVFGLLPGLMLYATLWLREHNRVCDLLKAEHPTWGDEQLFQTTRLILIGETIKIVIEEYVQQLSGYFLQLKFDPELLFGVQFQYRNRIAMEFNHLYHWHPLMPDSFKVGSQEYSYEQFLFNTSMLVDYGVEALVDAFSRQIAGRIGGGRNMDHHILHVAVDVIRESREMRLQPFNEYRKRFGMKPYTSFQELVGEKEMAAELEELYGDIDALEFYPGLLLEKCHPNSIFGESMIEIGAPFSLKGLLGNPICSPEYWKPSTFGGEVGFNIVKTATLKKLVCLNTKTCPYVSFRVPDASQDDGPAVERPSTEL

[3] = target: T3, Prostaglandin G/H synthase 2 (Homo sapiens, UniProt P35354); assay: biochemical
T3 sequence (P35354 whole entry): T1 sequence (whole entry)
Description: Inhibitory concentration against human recombinant Prostaglandin G/H synthase 2 cloned and expressed in baculovirus (Sf9)

[4] = target: T2, Prostaglandin G/H synthase 1; assay: Percent inhibition at 10 uM concentration against human recombinant Prostaglandin G/H synthase 1 cloned and expressed in baculovirus (Sf9)
[5] = target: T2, Prostaglandin G/H synthase 1; assay: Inhibitory concentration against human recombinant Prostaglandin G/H synthase 1 cloned and expressed in baculovirus (Sf9)

| inhibition [1] [%] | inhibition [2] [%] | IC50 [3] [µM] | inhibition [4] [%] | IC50 [5] [µM] | SMILES |
| --- | --- | --- | --- | --- | --- |
| 45 | 0 | – | – | – | COc1ccc2c(c1)c(Cc1csc(NC(=O)c3ccncc3)n1)c(C)n2C(=O)c1ccc(Cl)cc1 |
| 9 | 4 | – | – | – | Cc1c(Cc2nc(-c3ccc(Cl)cc3)cs2)c2cc(Br)ccc2n1C(=O)c1ccc(Br)cc1 |
| 1 | 36 | – | – | – | COc1ccc2c(c1)c(Cc1nc(C(C)C)cs1)c(C)n2C(=O)c1ccc(Cl)cc1 |
| 75 | 12 | – | – | – | COc1ccc2c(c1)c(Cc1nc(-c3ccc(F)cc3F)cs1)c(C)n2C(=O)c1ccc(Cl)cc1 |
| – | 3 | 0.03 | – | – | COc1ccc2c(c1)c(Cc1nc(-c3ccc(Br)cc3)cs1)c(C)n2C(=O)c1ccc(Br)cc1 |
| – | 11 | – | – | – | COc1ccc2c(c1)c(Cc1nc(-c3ccc4ccccc4c3)cs1)c(C)n2C(=O)c1ccc(Cl)cc1 |
| – | – | – | 16 | – | COc1ccc2c(c1)c(Cc1nc(-c3ccc(Cl)cc3)cs1)c(C)n2C(=O)c1ccc(Cl)cc1 |
| – | 2 | 0.007 | – | – | COc1ccc2c(c1)c(Cc1nc(-c3ccc(Cl)cc3)cs1)c(C)n2C(=O)c1ccc(Br)cc1 |
| 21 | – | – | 13 | – | COc1ccc2c(c1)c(Cc1nc(-c3ccc(-c4ccccc4)cc3)cs1)c(C)n2C(=O)c1ccc(Cl)cc1 |
| 20 | 47 | – | – | – | COc1ccc2c(c1)c(Cc1csc(-c3cccnc3)n1)c(C)n2C(=O)c1ccc(Cl)cc1 |
| 40 | 1 | – | – | – | CCOC(=O)c1csc(Cc2c(C)n(C(=O)c3ccc(Cl)cc3)c3ccc(OC)cc23)n1 |
| – | 18 | – | – | – | COc1ccc2c(c1)c(Cc1nc(-c3cccc(Br)c3)cs1)c(C)n2C(=O)c1ccc(Cl)cc1 |
| 85 | 35 | – | – | – | COc1ccc2c(c1)c(Cc1nc(-c3cccc([N+](=O)[O-])c3)cs1)c(C)n2C(=O)c1ccc(Cl)cc1 |
| 75 | 57 | – | – | – | COc1ccc2c(c1)c(Cc1csc(-c3ccncc3)n1)c(C)n2C(=O)c1ccc(Cl)cc1 |
| 25 | 0 | – | – | – | Cc1c(Cc2nc(-c3ccc(Br)cc3)cs2)c2cc(F)ccc2n1C(=O)c1ccc(Br)cc1 |
| 42 | 24 | – | – | – | COc1ccc2c(c1)c(Cc1csc(-c3ccccc3Cl)n1)c(C)n2C(=O)c1ccc(Cl)cc1 |
| 37 | 7 | – | – | – | Cc1c(Cc2nc(-c3ccc(Cl)cc3)cs2)c2cc(F)ccc2n1C(=O)c1ccc(Br)cc1 |

| inhibition [1] [%] | inhibition [2] [%] | IC50 [3] [µM] | inhibition [4] [%] | IC50 [5] [µM] | SMILES |
| --- | --- | --- | --- | --- | --- |
| 36 | 23 | – | – | – | CCN(CC)c1ccc(-c2csc(Cc3c(C)n(C(=O)c4ccc(Cl)cc4)c4ccc(OC)cc34)n2)cc1 |
| 33 | 15 | – | – | – | COc1ccc2c(c1)c(Cc1nc(-c3ccc(S(C)(=O)=O)cc3)cs1)c(C)n2C(=O)c1ccc(Cl)cc1 |
| 6 | 13 | – | – | – | COc1ccc2c(c1)c(Cc1nc(C34C[C@H]5C[C@@H](C3)C[C@@H](C4)C5)cs1)c(C)n2C(=O)c1ccc(Cl)cc1 |
| – | 9 | 0.007 | – | – | COc1ccc2c(c1)c(Cc1nc(-c3ccc([N+](=O)[O-])cc3)cs1)c(C)n2C(=O)c1ccc(Br)cc1 |
| 40 | 1 | – | – | – | Cc1c(Cc2nc(-c3ccc([N+](=O)[O-])cc3)cs2)c2cc(F)ccc2n1C(=O)c1ccc(Br)cc1 |
| – | – | – | 28 | – | COc1ccc2c(c1)c(Cc1nc(-c3ccc(F)cc3)cs1)c(C)n2C(=O)c1ccc(Cl)cc1 |
| 7 | 13 | – | – | – | Cc1c(Cc2nc(-c3ccc(Br)cc3)cs2)c2cc(Br)ccc2n1C(=O)c1ccc(Br)cc1 |
| 16 | 18 | – | – | – | COc1ccc2c(c1)c(Cc1csc(-c3ccc(Cl)cc3)n1)c(C)n2C(=O)c1ccc(Cl)cc1 |
| 4 | 27 | – | – | – | COc1ccc2c(c1)c(Cc1csc(NC(=O)CN)n1)c(C)n2C(=O)c1ccc(Cl)cc1 |
| 7 | 1 | – | – | – | Cc1c(Cc2nc(-c3ccc([N+](=O)[O-])cc3)cs2)c2cc(Br)ccc2n1C(=O)c1ccc(Br)cc1 |
| – | – | – | 27 | – | COc1ccc2c(c1)c(Cc1nc(-c3ccc(Br)cc3)cs1)c(C)n2C(=O)c1ccc(Cl)cc1 |
| 10 | 40 | – | – | – | COc1ccc2c(c1)c(Cc1nc(-c3ccc(C(=O)O)cc3)cs1)c(C)n2C(=O)c1ccc(Br)cc1 |
| – | – | 0.39 | – | 15500 | COc1ccc2c(c1)c(Cc1csc(N)n1)c(C)n2C(=O)c1ccc(Cl)cc1 |
| – | – | – | 17 | – | COc1ccc2c(c1)c(Cc1nc(-c3ccc([N+](=O)[O-])cc3)cs1)c(C)n2C(=O)c1ccc(Cl)cc1 |
| – | 20 | – | – | – | COc1ccc2c(c1)c(Cc1nc(-c3csc4ccccc34)cs1)c(C)n2C(=O)c1ccc(Cl)cc1 |
| – | 35 | 0.12 | – | – | COc1ccc2c(c1)c(Cc1nc(-c3ccc(C(=O)O)cc3)cs1)c(C)n2C(=O)c1ccc(Cl)cc1 |
| 2 | 6 | – | – | – | COc1ccc2c(c1)c(Cc1nc(C(=O)O)cs1)c(C)n2C(=O)c1ccc(Cl)cc1 |
